Results taken from PMC6693507 (Analytical chemistry, 2019).

Legend:
WT ACE = assay: 100 μL of HEPES buffer; details: mouse (ACE purified from mouse lung and kidney), 37 °C, up to 30 min
ACE = target: T1, ACE (Mus musculus, UniProt P09470); assay: In vitro ACE cleavage of synthetic peptides, MALDI-TOF MS; format: biochemical; details: 2 pmol/μL peptide, WT ACE or NKO ACE, 30 min, 37 °C
T1 sequence (P09470 35-1312): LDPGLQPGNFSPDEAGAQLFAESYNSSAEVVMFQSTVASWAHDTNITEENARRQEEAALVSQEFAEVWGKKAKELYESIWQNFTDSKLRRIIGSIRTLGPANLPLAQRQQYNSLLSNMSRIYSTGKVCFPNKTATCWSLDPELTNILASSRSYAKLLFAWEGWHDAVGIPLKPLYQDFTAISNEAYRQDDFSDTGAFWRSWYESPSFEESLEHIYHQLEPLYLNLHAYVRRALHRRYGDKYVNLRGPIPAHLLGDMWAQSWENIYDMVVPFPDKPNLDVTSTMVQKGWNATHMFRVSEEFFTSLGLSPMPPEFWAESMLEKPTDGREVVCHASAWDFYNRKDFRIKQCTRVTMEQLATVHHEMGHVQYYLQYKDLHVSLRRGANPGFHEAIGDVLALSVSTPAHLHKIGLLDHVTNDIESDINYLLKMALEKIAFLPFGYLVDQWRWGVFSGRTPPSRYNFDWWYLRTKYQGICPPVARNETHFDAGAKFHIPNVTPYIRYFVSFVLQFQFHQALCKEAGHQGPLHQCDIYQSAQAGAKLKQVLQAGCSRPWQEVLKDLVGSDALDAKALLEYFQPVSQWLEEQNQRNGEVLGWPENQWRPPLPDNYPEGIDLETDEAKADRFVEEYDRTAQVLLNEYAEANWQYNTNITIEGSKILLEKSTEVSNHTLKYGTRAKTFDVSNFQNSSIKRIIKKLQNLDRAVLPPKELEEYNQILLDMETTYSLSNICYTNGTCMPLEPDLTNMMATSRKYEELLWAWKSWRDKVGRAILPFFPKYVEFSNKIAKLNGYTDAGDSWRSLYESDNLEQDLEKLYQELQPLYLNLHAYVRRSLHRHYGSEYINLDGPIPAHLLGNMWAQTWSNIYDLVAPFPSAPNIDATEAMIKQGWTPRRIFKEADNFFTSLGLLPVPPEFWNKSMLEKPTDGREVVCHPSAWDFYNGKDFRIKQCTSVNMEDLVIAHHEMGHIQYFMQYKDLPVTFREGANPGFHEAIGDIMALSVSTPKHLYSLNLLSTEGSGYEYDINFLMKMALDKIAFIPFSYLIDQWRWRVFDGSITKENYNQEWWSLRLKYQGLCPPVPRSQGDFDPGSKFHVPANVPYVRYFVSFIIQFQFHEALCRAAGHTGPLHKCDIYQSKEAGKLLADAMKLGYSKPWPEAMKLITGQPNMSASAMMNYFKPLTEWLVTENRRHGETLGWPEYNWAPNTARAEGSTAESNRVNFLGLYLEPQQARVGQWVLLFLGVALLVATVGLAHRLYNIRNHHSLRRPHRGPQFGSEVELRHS

| not cleaved (WT ACE) | cleavage products detectable by MALDI-MS (ACE) | Substance |
| --- | --- | --- |
| not further cleaved by ACE |  | WGTGSPRPG |
|  | not detectable | FPDGTKEMD [serine-protease inhibitor A3K (22–30)] |
|  | not detectable | FSSLMNLEEKPAPAA [apolipoprotein A-II (87–101)] |
| not further cleaved by ACE |  | FPRSPL |
